Entries after “also recorded” stand apart in the source; their conditions may differ. Read-outs that look alike come from different tables or passages of the source.

Data set [1] in a line: Heat stability studies: HPLC peak area change after heating, hot water or hot coffee. It is filed as physicochemical. To be noted: for Effect of heating solutions on vitamin concentration: heating to either 80° C. or 100° C. for 15 minutes; for % Deviation / Vitamin degradation, Heat 80° C. / Vitamin degradation, Heat 100° C.: 15 minutes; for % Deviation: vs control; for Vitamin degradation, Heat 80° C. / Vitamin degradation, Heat 100° C.: summary; for Vitamin degradation, Heat 80° C.: solution heated 80° C.; for Vitamin degradation, Heat 100° C.: solution heated 100° C.; for Effect of dilution with hot water and coffee on vitamin concentration: dilution with hot water or hot coffee, 80° C. or 100° C. Here is the method:
Vitamins were divided into two groups, depending on their solubility. “High concentration” vitamins were sufficiently soluble to be detected by the. HPLC analysis after 1/250 dilution. “Low concentration” vitamins were not sufficiently soluble and could not be detected after 1/250 dilution and therefore a different procedure was adopted for these compounds as described below.
High concentration vitamin (B1, B3, B5, B6) solutions
Solutions were prepared immediately before use in duplicate, using four different methods, described below: a. Dilute 1 mL of each standard solution to 250 mL with Milli-Q water at room temperature (control sample) […]
b. […] Then take a 1 mL sample from each tube and dilute to 250 mL with Milli-Q water at room temperature. c. Dilute 1 mL of each solution to 250 mL with hot water (80° C. or 100° C.). Leave for 15 minutes, then take a sample and cool immediately to room temperature. d. Dilute 1 mL of each solution to 250 mL with hot coffee (80° C. or 100° C.). Leave for 15 minutes, then take a sample and cool immediately to room temperature.
Low Concentration Vitamin (B2, B7, B9, B12) Solutions
Standard solutions were freshly prepared with Milli-Q water as described above. The test solutions below were then immediately prepared in duplicate: a. Use undiluted (control sample)
HPLC conditions were as described above.
(§1) The percentage change in individual vitamin concentrations relative to the control sample was calculated as: 100×(Atest−Acontrol)/Acontrol, where Atest and Acontrol are peak area ratios (analyte/intemal standard) for the test and control solutions respectively.
All statistical analyses were performed with SPSS 16.

Data set [2] in a line: Long term storage stability studies: HPLC, solutions stored at RT and 4° C. for up to 4 months. The following applies: for Long term storage stability of vitamin solution: stored at RT or 4° C., 4 month period. Here is the method: Heat was applied by different methods, including placing the solution in a test tube in a bath of hot water (80° C. or 100° C.) for 15 minutes, or by mixing a concentrated solution with hot water or hot coffee (80° C. or 100° C. for both) for an equivalent time. Long term stability studies were carried out by storing individual vitamin solutions at room temperature and at 4° C. for up to 4 months and sampling these solutions at various intervals. Degradation was assessed by the change in peak area of the HPLC peak specific to each particular compound.
Vitamin solutions were prepared as for the Heat Stability Studies.
Replicate aliquots of these solutions were placed in four 15 mL Falcon tubes. Two of these tubes were stored on a shelf at room temperature (RT) in the laboratory and two in the cold room (4° C.).
At 0, 0.5, 1, 1.5, 2, 3.5, and 4 months, samples were taken from each vial for
HPLC analysis. The high concentration vitamin samples (vitamins BI, B3, B5, and B6) were diluted to 1:250 with Milli-Q water before injection and the low concentration vitamin samples (vitamins B2, B7, B9, and B12) were injected undiluted.
Samples from each of the duplicate solutions described above were injected onto the HPLC in duplicate. HPLC conditions were as described above.
Duplicate injections of the two samples were made and the mean of the four results was reported.
as §1
For the heat stability studies, statistical analysis was performed by Students t-test. For the storage stability studies, statistical analysis was performed by univariate ANOVA (General Linear Model). All statistical analyses were performed with SPSS 16.

The conditions of data set [3]: water; cited from earlier work.
Where [4] appears, read: low concentration vitamin solution, undiluted, heated to 80° C.
Where [5] appears, read: low concentration vitamin solution, undiluted, heated to 100° C.
The mark [6] stands for this setting: greatest percentage change over the 4 month testing period, † non-significant, * significant, ‡ transient at 2 weeks.
The mark [7] stands for this setting: storage at RT and 4° C. for up to 4 months.
The mark [8] stands for this setting: high concentration vitamin solution, matrix coffee: diluted 1/250 with hot coffee 80° C.
Where [9] appears, read: high concentration vitamin solution, matrix coffee: diluted 1/250 with hot coffee 100° C.
The mark [10] stands for this setting: high concentration vitamin solution, matrix heated: tube in hot water 80° C.
[11] abbreviates: high concentration vitamin solution, matrix heated: tube in hot water 100° C.
Where [12] appears, read: high concentration vitamin solution, matrix hot water: diluted 1/250 with hot water 80° C.
[13] abbreviates: high concentration vitamin solution, matrix hot water: diluted 1/250 with hot water 100° C.

For `O=C(O)CCCC[C@@H]1SC[C@@H]2NC(=O)N[C@@H]21` [Vitamin B7, biotin], in data set [1], the “Effect of heating solutions on vitamin concentration” value (“Effect of heating solutions” for short) is “not significantly affected”; the “Vitamin degradation, Heat 80° C.” value was “†† (non-significant reductions in vitamin concentrations of <2% in response to heat treatment)”; the “Vitamin degradation, Heat 100° C.” value is listed as “†† (non-significant reductions in vitamin concentrations of <2% in response to heat treatment)”. Further, the “% Deviation” value in data set [1] (setting [4]) is −0.47%. Besides, in data set [1] (setting [5]), the “% Deviation” value is given as −1.89%. In addition, in data set [2] (setting [6]), the “Vitamin degradation, Storage 4° C.” value was −27.4% ‡ and the “Vitamin degradation, Storage RT” value is −15.9% ‡. Further, in data set [2] (setting [7]), the “Comment (long term storage stability)” value is recorded as “Stable for 4 months”. For the same compound, the “Long term storage stability of vitamin solution” value in data set [2] was “varying levels of degradation; also recorded: no statistically significant degradation; also recorded: transient reductions”. In addition, the Aq. solubility in data set [3] was 0.22 mg/mL.

With `Cc1ncc(C[n+]2csc(CCO)c2C)c(N)n1` [Vitamin B1, Thiamine], the “Effect of dilution with hot water and coffee on vitamin concentration” value in data set [1] is given as “unaffected”. Also, the “Effect of heating solutions” value in data set [1] is reported as “not affected”. The “% Deviation” value in data set [1] (setting [8]) is recorded as 0.46%; in data set [1] (setting [9]), 0.58%; in data set [1] (setting [10]), 0.33%; in data set [1] (setting [11]), 0.22%; in data set [1] (setting [12]) it was −0.04%; in data set [1] (setting [13]), −0.26%. Also, the “Vitamin degradation, Storage 4° C.” value in data set [2] (setting [6]) was “† −2.8%”. For the same compound, the “Vitamin degradation, Storage RT” value in data set [2] (setting [6]) is on record as “† −2.4%”. The “Comment (long term storage stability)” value in data set [2] (setting [7]) is given as “Stable for 4 months”. In addition, the “Long term storage stability of vitamin solution” value in data set [2] was “stable; also recorded: no statistically significant degradation”. In data set [3], the Aq. solubility is recorded as 500 mg/mL.

On to cyanocobalamin [Vitamin B12], for which, in data set [1], the “Effect of heating solutions” value is given as “not significantly affected”; the “Vitamin degradation, Heat 80° C.” value is “†† (non-significant reductions in vitamin concentrations of <2% in response to heat treatment)”; the “Vitamin degradation, Heat 100° C.” value was “†† (non-significant reductions in vitamin concentrations of <2% in response to heat treatment)”. Moreover, the “% Deviation” value in data set [1] (setting [4]) is listed as −0.14%. Besides, the “% Deviation” value in data set [1] (setting [5]) is −0.18%. In data set [2] (setting [6]), the “Vitamin degradation, Storage 4° C.” value is listed as “† −1.4%” and the “Vitamin degradation, Storage RT” value was “† −1.2%”. The “Long term storage stability of vitamin solution” value in data set [2] is recorded as “stable; also recorded: no statistically significant degradation”. Also, the Aq. solubility in data set [3] is 0.0125 mg/mL.

With `Cc1ncc(CO)c(CO)c1O.Cl` [Vitamin B6, pyroxidine hydrochloride], the “Effect of dilution with hot water and coffee on vitamin concentration” value in data set [1] is reported as “unaffected”. For the same compound, the “Effect of heating solutions” value in data set [1] was “not affected”. In addition, the “% Deviation” value was −0.63% in data set [1] (setting [8]); −1.47% in data set [1] (setting [9]); 0.05% in data set [1] (setting [10]); −0.28% in data set [1] (setting [11]); 1.39% in data set [1] (setting [12]); 1.64% in data set [1] (setting [13]). In addition, in data set [2], the “Comment (long term storage stability)” value is reported as “Stable for 4 months”. The “Vitamin degradation, Storage 4° C.” value in data set [2] is “† −2.5%”. Also, the “Vitamin degradation, Storage RT” value in data set [2] is listed as “† −1.5%”.

In the case of `Nc1nc2ncc(CNc3ccc(C(=O)N[C@@H](CCC(=O)O)C(=O)O)cc3)nc2c(=O)[nH]1` [Vitamin B9, folic acid], the “Effect of heating solutions” value in data set [1] is on record as “Statistically significant reductions”. In addition, the “% Deviation” value in data set [1] (setting [4]) is listed as −1.92%. Also, the “% Deviation” value in data set [1] (setting [5]) is given as −2.26%. In data set [2] (aqueous solution stored at 4° C., up to 4 months, — = no significant fall), the “Time to achieve significant falls at 4° C.” value was 2 weeks. The “Time to achieve significant falls at RT” value in data set [2] (aqueous solution stored at RT, up to 4 months, — = no significant fall) is 2 weeks. Also, in data set [2] (setting [6]), the “Vitamin degradation, Storage 4° C.” value is reported as −13.7% * and the “Vitamin degradation, Storage RT” value is recorded as −100.0% *. In data set [2] (storage at 4° C.), the “Comment: At 4° C., significant change only at” value turned out to be 2 weeks. The “Further fall in levels at 1 month” value in data set [2] (storage at 4° C., 1 month, beyond the fall at 2 weeks) is given as 5.7%. Besides, the “Degradation after 2 weeks at 4° C.” value in data set [2] (storage at 4° C., 2 weeks) turned out to be 8.0%. For the same compound, the “Maximum degradation on storage at 4° C.” value in data set [2] (storage at 4° C., 4 months) came to 13.7%. Besides, the “Comment (long term storage stability)” value in data set [2] (setting [7]) is on record as “At RT, undetectable”. Besides, the “Degradation after 2 weeks at RT” value in data set [2] (storage at RT, 2 weeks) stood at 10.0%. Also, the “Level on storage at RT after the 2 week sample” value in data set [2] (storage at RT, sampling times from 1 month to 4 months) is “undetectable; also recorded: complete elimination”. Further, the “Long term storage stability of vitamin solution” value in data set [2] is recorded as “varying levels of degradation; also recorded: Significant degradation”. The Aq. solubility in data set [3] is 0.0016 mg/mL.

The values above are taken from patent US20130015204A1, “SINGLE-USE CONTAINERS AND USES THEREOF” (priority 2009, published 2013).
